In US9771372B2, “Compounds useful as S100-inhibitors” (Active Biotech AB, priority 2014, dated 2017) one finds IC50 data, which are given here for 21 compounds.

This assay has as its target T1, interaction between biotinylated human S100A9 and human RAGE-Fc (Homo sapiens, UniProt P06702).
T1 construct: made in house; host or cells: E. coli BL21(DE3)/pET1120 (pLR757)
T1 sequence (P06702 1-114): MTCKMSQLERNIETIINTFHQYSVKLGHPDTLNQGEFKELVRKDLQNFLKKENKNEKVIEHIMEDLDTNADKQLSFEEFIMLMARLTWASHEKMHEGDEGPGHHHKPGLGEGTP
Put plainly: AlphaScreen inhibition assay, Biot-hS100A9:hRAGE-Fc (S100A9-RAGE inhibition assay). In kind it is binding. Conditions: biot-hS100A9 and rhRAGE-Fc, Ca2+ and Zn2+ in buffer. An excerpt: FIG. 1 is a schematic representation of an assay of the inhibition of the interaction between biotinylated human S100A9 and human RAGE-Fc using a small molecule S100A9 binder.
Inhibition Assay, Biot-hS100A9:hRAGE-Fc
The AlphaScreen (Amplified Luminescent Proximity Homogeneous Assay) contains two types of beads, Alpha Donor beads and Acceptor beads (PerkinElmer). Upon laser excitation at 680 nm a photosensitizer in the Donor bead converts ambient oxygen to a more excited singlet state. The singlet oxygen molecule diffuses (maximum 200 nm) to react with a thioxene derivative in the Acceptor bead and generates a chemiluminescence reaction. Fluorophores in the Acceptor bead subsequently emit light at 520-620 nm which can be detected in the EnVision® Multilabel plate Reader (PerkinElmer). The beads are light sensitive and all work with the beads is performed under subdued light conditions or using green filters on light sources (Roscolux Chroma Green #389, Rosco).
In the AlphaScreen Inhibition Assay described here, protein A (Staphylococcus aureus) conjugated Acceptor beads are used together with streptavidin coated Donor beads (Perkin Elmer 6760617M). The Acceptor beads are pre-incubated with Fc-tagged recombinant human RAGE (rhRAGE-Fc) allowing binding of the rhRAGE-Fc to protein A on the beads. Biotinylated human S100A9 (biot-hS100A9) is pre-incubated with the low molecular test compounds. The pre-mixes are then added to the wells of a micro-plate and incubated allowing interaction between biot-hS100A9 and rhRAGE-Fc. Subsequent addition of streptavidin coated Donor beads causes binding of the streptavidin to the biotinylated hS100A9. After an additional incubation the signal is measured.
Without inhibitory compounds, the interaction of biot-hS100A9 to rhRAGE-Fc will bring the Acceptor and Donor beads in close proximity thus generating a high signal. With an inhibitor present the complex will not form resulting in a decreased signal.
The AlphaScreen assay method is used for screening of the inhibitory effect of different compound samples at fixed concentrations or for IC50 determination by varying the compound concentrations. Samples of test compounds and references are prepared from solutions in DMSO. Relevant reference inhibitors and DMSO are used as controls for defined inhibition and non-inhibition, respectively in the assay. The percent inhibition in assay for test compounds and references are calculated by comparing their obtained assay signals with the signal values for the control with only DMSO (no compound).
Assay concentration of biotinylated hS100A9 and rhRAGE-Fc are batch dependent, and are determined and defined by separate cross-titration experiments using this AlphaScreen inhibition method to verify the optimal setup regarding signal strength and achievement of a defined inhibition with relevant reference compounds. The Final assay concentrations of Acceptor and Donor beads are 20 μg/mL.
Assay buffer is prepared by adding CaCl2 and ZnCl2 to HBS-P and is used freshly prepared in the experiment.
Biotin-hS100A9 solution for the experiment is prepared by dilution of appropriate amount of stock solution biot-hS100A9 in assay buffer (with CaCl2 and ZnCl2) and incubation in room temperature for 30 minutes.
rhRAGE-Fc solution for the experiment is prepared by dilution appropriate amount of rhRAGE-Fc stock in assay buffer.
Protein A Acceptor beads are diluted in assay buffer and are added to an equal volume of the prepared diluted rhRAGE-Fc solution. The beads are light sensitive. The vial is covered with aluminum foil and incubated at room temperature in the dark until biot-hS100A9+compound incubation is finished (see below).
Streptavidin-coated Donor beads are diluted in assay buffer. The beads are very light sensitive. The vial is covered with aluminum foil and incubated at room temperature in the dark until use (see below).
Samples of test compounds, appropriate references and DMSO control are diluted in assay buffer. […]
For orientation: Alpha assays give light when donor and acceptor beads are brought close together.

Consider `COCCNc1cccc(C(=O)NC2(C(F)(F)F)C(=O)Nc3nc4cc(C)c(C)cc4n32)n1` (stereo not drawn) [Example 111, N-[10,11-dimethyl-4-oxo-3-(trifluoromethyl)-2,5,7-triazatricyclo[6.4.0.0^2,6]dodeca-1(8),6,9,11-tetraen-3-yl]-6-[(2-methoxyethyl)amino]pyridine-2-carboxamide], for which the IC50 – broadly, the midpoint of a concentration-inhibition curve – turned out to be 1620 nM. For `O=C(CCC1CCCC1)NC1(C(F)(F)F)C(=O)Nc2nc3cc(Cl)c(Cl)cc3n21` (stereo not drawn) [Example 39, 3-cyclopentyl-N-[10,11-dichloro-4-oxo-3-(trifluoromethyl)-2,5,7-triazatricyclo[6.4.0.0^2,6]-dodeca-1(12),6,8,10-tetraen-3-yl]propanamide] the value was 500 nM; for `Cc1cc2nc3n(c2cc1C)C(NC(=O)CCc1ccccc1Cl)(C(F)(F)F)C(=O)N3` (stereo not drawn) [Example 16, 3-(2-chlorophenyl)-N-[10,11-dimethyl-4-oxo-3-(trifluoromethyl)-2,5,7-triazatricyclo-[6.4.0.0^2,6]dodeca-1(8),6,9,11-tetraen-3-yl]propanamide], 1300 nM; for `O=C(CCC1CCCC1)NC1(C(F)(F)F)C(=O)Nc2nc3c(-c4ccc([N+](=O)[O-])cc4)cccc3n21` (stereo not drawn) [Example 193, 3-cyclopentyl-N-[9-(4-nitrophenyl)-4-oxo-3-(trifluoromethyl)-2,5,7-triazatricyclo[6.4.0.0^2,6]dodeca-1(12),6,8,10-tetraen-3-yl]propanamide], 1560 nM. Under `O=C(CCC1CCCCC1)NC1(C(F)(F)F)C(=O)Nc2nc3cc(Cl)c(Cl)cc3n21` (stereo not drawn) [Example 53, 3-cyclohexyl-N-[10,11-dichloro-4-oxo-3-(trifluoromethyl)-2,5,7-triazatricyclo[6.4.0.0^2,6]-dodeca-1(12),6,8,10-tetraen-3-yl]propanamide] stands 700 nM; under `O=C(CCC1CCCC1)NC1(C(F)(F)F)C(=O)Nc2nc3c(F)cc(F)cc3n21` (stereo not drawn) [Example 86, 3-cyclopentyl-N-[9,11-difluoro-4-oxo-3-(trifluoromethyl)-2,5,7-triazatricyclo-[6.4.0.0^2,6]dodeca-1(12),6,8,10-tetraen-3-yl]propanamide], 6400 nM. As to `Cc1cc2nc3n(c2cc1C)C(NC(=O)[C@@H](C)CC1CCCC1)(C(F)(F)F)C(=O)N3` (mixture of isomers) [Example 145, (2S)-3-cyclopentyl-N-[10,11-dimethyl-4-oxo-3-(trifluoromethyl)-2,5,7-triazatricyclo[6.4.0.0^2,6]dodeca-1(8),6,9,11-tetraen-3-yl]-2-methylpropanamide], the 50% inhibitory concentration (IC50) is 3120 nM.

In the case of `O=C(CCC1(O)CCCC1)NC1(C(F)(F)F)C(=O)Nc2nc3cc(Cl)c(Cl)cc3n21` (stereo not drawn) [Example 88, N-[10,11-dichloro-4-oxo-3-(trifluoromethyl)-2,5,7-triazatricyclo[6.4.0.0^2,6]dodeca-1(8),6,9,11-tetraen-3-yl]-3-(1-hydroxycyclopentyl)propanamide], the IC50 is 1610 nM. For `O=C(CCC1CCCC1)NC1(C(F)(F)F)C(=O)Nc2nc3c(-c4ccc(Cl)cc4)cccc3n21` (stereo not drawn) [Example 201, N-[9-(4-chlorophenyl)-4-oxo-3-(trifluoromethyl)-2,5,7-triazatricyclo[6.4.0.0^2,6]dodeca-1(12),6,8,10-tetraen-3-yl]-3-cyclopentylpropanamide] the value was 850 nM; for `CC(=O)N1CC(C(=O)NC2(C(F)(F)F)C(=O)Nc3nc4cc(Cl)c(Cl)cc4n32)C1` (stereo not drawn) [Example 49, 1-acetyl-N-[10,11-dichloro-4-oxo-3-(trifluoromethyl)-2,5,7-triazatricyclo-[6.4.0.0^2,6]-dodeca-1(12),6,8,10-tetraen-3-yl]azetidine-3-carboxamide], 3900 nM. For `Cc1cc2nc3n(c2cc1C)C(NC(=O)CCC1CCCC1)(C(F)(F)F)C(=O)N3` (stereo not drawn) [Example 27, 3-cyclopentyl-N-[10,11-dimethyl-4-oxo-3-(trifluoromethyl)-2,5,7-triazatricyclo[6.4.0.0^2,6]-dodeca-1(12),6,8,10-tetraen-3-yl]propanamide] the value was 400 nM; for `O=C(CCC1CCCC1)NC1(C(F)(F)F)C(=O)Nc2nc3cc(F)c(F)cc3n21` (stereo not drawn) [Example 73, 3-cyclopentyl-N-[10,11-difluoro-4-oxo-3-(trifluoromethyl)-2,5,7-triazatricyclo-[6.4.0.0^2,6]dodeca-1(12),6,8,10-tetraen-3-yl]propanamide], 2800 nM; for `O=C(NC1(C(F)(F)F)C(=O)Nc2nc3cc(Cl)c(Cl)cc3n21)C1CCCC1` (stereo not drawn) [Example 54, N-[10,11-dichloro-4-oxo-3-(trifluoromethyl)-2,5,7-triazatricyclo[6.4.0.0^2,6]dodeca-1(12),6,8,10-tetraen-3-yl]cyclopentanecarboxamide], 1600 nM. Under `O=C(CCC1CCCC1)NC1(C(F)(F)F)C(=O)Nc2nc3c(F)c(Br)ccc3n21` (stereo not drawn) [Example 177, N-[10-bromo-9-fluoro-4-oxo-3-(trifluoromethyl)-2,5,7-triazatricyclo[6.4.0.0^2,6]dodeca-1(12),6,8,10-tetraen-3-yl]-3-cyclopentylpropanamide] stands 1630 nM; under `Cc1cc2nc3n(c2cc1C)C(NC(=O)CCc1ccccc1)(C(F)(F)F)C(=O)N3` (stereo not drawn) [Example 15, N-[10,11-dimethyl-4-oxo-3-(trifluoromethyl)-2,5,7-triazatricyclo[6.4.0.0^2,6]dodeca-1(8),6,9,11-tetraen-3-yl]-3-phenylpropanamide], 1400 nM; under `O=C(CCN1CCOCC1)NC1(C(F)(F)F)C(=O)Nc2nc3cc(Cl)c(Cl)cc3n21` (stereo not drawn) [Example 61, N-[10,11-dichloro-4-oxo-3-(trifluoromethyl)-2,5,7-triazatricyclo[6.4.0.0^2,6]dodeca-1(12),6,8,10-tetraen-3-yl]-3-(morpholin-4-yl)propanamide], 2900 nM.

For the compound `CO[C@H](C(=O)NC1(C(F)(F)F)C(=O)Nc2nc3cc(C)c(C)cc3n21)c1ccccc1` (single isomer, unassigned) [Example 147b], the IC50 is 3440 nM.

As to `Cc1cc2nc3n(c2cc1C)C(NC(=O)c1cccc(NC2CCCCC2)n1)(C(F)(F)F)C(=O)N3` (stereo not drawn) [Example 35, 6-(cyclohexylamino)-N-[10,11-dimethyl-4-oxo-3-(trifluoromethyl)-2,5,7-triazatricyclo-[6.4.0.0^2,6]dodeca-1(12),6,8,10-tetraen-3-yl]pyridine-2-carboxamide], the IC50 stood at 2700 nM. For `COC[C@H](C)Nc1cccc(C(=O)NC2(C(F)(F)F)C(=O)Nc3nc4c(C#N)c(Cl)ccc4n32)n1` (mixture of isomers) [Example 140, N-[10-chloro-9-cyano-4-oxo-3-(trifluoromethyl)-2,5,7-triaza-tricyclo[6.4.0.0^2,6]dodeca-1(8),6,9,11-tetraen-3-yl]-6-{[(2S)-1-methoxypropan-2-yl]amino}-pyridine-2-carboxamide] the value was 1450 nM; for `O=C(NC1(C(F)(F)F)C(=O)Nc2nc3cc(Cl)c(Cl)cc3n21)C1CC2(CNC2)C1` (stereo not drawn) [Example 40, N-[10,11-dichloro-4-oxo-3-(trifluoromethyl)-2,5,7-triazatricyclo[6.4.0.0^2,6]dodeca-1(12),6,8,10-tetraen-3-yl]-2-azaspiro[3.3]heptane-6-carboxamide], 3300 nM; for `COCCNc1cccc(C(=O)NC2(C(F)(F)F)C(=O)Nc3nc4cc(C)c(C)cc4n32)n1` (single isomer, unassigned) [Example 220b, N-[10,11-dimethyl-4-oxo-3-(trifluoromethyl)-2,5,7-triazatricyclo[6.4.0.0^2,6]dodeca-1(12),6,8,10-tetraen-3-yl]-6-[(2-methoxyethyl)amino]pyridine-2-carboxamide], 4000 nM.
